According to PubChem BioAssay (NCI):
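Following 48 hours of exposure in 96-well plates, responses at five concentrations were used to interpolate endpoints linearly. The concentration for 50% growth inhibition is given as GI50. The concentration for full growth arrest is given as TGI.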

Columns and labels:
Assay in all cases: growth of human tumour cells (NCI), 48 h
[1] = test system: OVCAR-5 ovarian
[2] = test system: ACHN renal
[3] = test system: MALME-3M melanoma
[4] = test system: NCI/ADR-RES ovarian
[5] = test system: SNB-19 CNS
[6] = test system: COLO 205 colon
[7] = test system: NCI-H23 lung
[8] = test system: SK-MEL-28 melanoma
[9] = test system: HOP-62 NSCLC
[10] = test system: M14 melanoma
[11] = test system: DU-145 prostate
[12] = test system: MDA-MB-435
[13] = test system: SF-268 CNS
[14] = test system: SK-OV-3 ovarian
[15] = test system: PC-3 prostate
[16] = test system: MDA-MB-468 breast
[17] = test system: SK-MEL-5 melanoma
[18] = test system: SF-539 CNS
[19] = test system: UACC-62 melanoma
[20] = test system: SK-MEL-2 melanoma
[21] = test system: K-562 leukemia
[22] = test system: HOP-92 NSCLC
[23] = test system: OVCAR-4 ovarian
[24] = test system: MCF7 breast
[25] = test system: UO-31 renal
[26] = test system: SF-295 CNS
[27] = test system: SNB-75 CNS
[28] = test system: SN12C renal
[29] = test system: IGROV1 ovarian
[30] = test system: CAKI-1 renal
[31] = test system: TK-10 renal
[32] = test system: MDA-MB-231 breast
[33] = test system: MOLT-4 leukemia
[34] = test system: HS 578T breast
[35] = test system: EKVX NSCLC
[36] = test system: A498 renal
[37] = test system: UACC-257 melanoma
[38] = test system: BT-549 breast
[39] = test system: NCI-H460 lung
[40] = test system: NCI-H226 lung
[41] = test system: U251 CNS
[42] = test system: NCI-H522 lung
[43] = test system: T-47D breast
[44] = test system: RXF 393 renal
[45] = test system: KM12 colon
[46] = test system: A549 NSCLC
[47] = test system: OVCAR-8 ovarian

## Cn1cc(-c2cc(N)n3nc(-c4c[nH]c5ccccc45)cc3n2)c2cccnc21
[1]
  GI50: 11 µM
  TGI: 39.1 µM
[2]
  GI50: 3.77 µM
  TGI: 21.1 µM
[3]
  GI50: 3.25 µM
  TGI: 17.1 µM
[4]
  GI50: 4.66 µM
  TGI: > 100 µM
[5]
  GI50: 14.8 µM
  TGI: 31.4 µM
[6]
  GI50: 10.7 µM
  TGI: 45.1 µM
[7]
  GI50: 19 µM
  TGI: 73.6 µM
[8]
  GI50: 5.33 µM
  TGI: 20.2 µM
[9]
  GI50: 6.15 µM
  TGI: 59.7 µM
[10]
  GI50: 2.63 µM
  TGI: 6.79 µM
[11]
  GI50: 5.09 µM
  TGI: > 100 µM
[12]
  GI50: 11 µM
  TGI: 29.5 µM
[13]
  GI50: 17.9 µM
  TGI: 81.9 µM
[14]
  GI50: 20.6 µM
  TGI: 69.5 µM
[15]
  GI50: 3.83 µM
  TGI: 23.6 µM
[16]
  GI50: 2.22 µM
  TGI: 6.42 µM
[17]
  GI50: 7.04 µM
  TGI: 20.5 µM
[18]
  GI50: 2.58 µM
  TGI: 7.31 µM
[19]
  GI50: 5.71 µM
  TGI: 21.7 µM
[20]
  GI50: 12.5 µM
  TGI: 43.1 µM
[21]
  GI50: 2.79 µM
  TGI: > 100 µM
[22]
  GI50: 5.81 µM
  TGI: 27.8 µM
[23]
  GI50: 3.42 µM
  TGI: > 100 µM
[24]
  GI50: 3.3 µM
  TGI: > 100 µM
[25]
  GI50: 5.41 µM
  TGI: 26.6 µM
[26]
  GI50: 1.99 µM
  TGI: 4.74 µM
[27]
  GI50: 2.44 µM
  TGI: 44.2 µM
[28]
  GI50: 11.6 µM
  TGI: 42.1 µM
[29]
  GI50: 19.1 µM
  TGI: 55.9 µM
[30]
  GI50: 3.85 µM
  TGI: 44.8 µM
[31]
  GI50: 17.1 µM
  TGI: 59.3 µM
[32]
  GI50: 3.4 µM
  TGI: 28.8 µM
[33]
  GI50: 3.32 µM
  TGI: > 100 µM
[34]
  GI50: 20 µM
  TGI: > 100 µM
[35]
  GI50: 15.3 µM
  TGI: > 100 µM
[36]
  GI50: 23 µM
  TGI: 54.8 µM
[37]
  GI50: 13.7 µM
  TGI: 33.5 µM
[38]
  GI50: 11.8 µM
  TGI: 33.6 µM
[39]
  GI50: 3.56 µM
  TGI: > 100 µM
[40]
  GI50: 14.1 µM
  TGI: > 100 µM
[41]
  GI50: 3.34 µM
  TGI: > 100 µM
[42]
  GI50: 5.54 µM
  TGI: 35.9 µM
[43]
  GI50: 2.99 µM
  TGI: 13.1 µM
[44]
  GI50: 2.28 µM
  TGI: 8.2 µM
[45]
  GI50: 3.34 µM
  TGI: 14.7 µM
[46]
  GI50: 4.19 µM
  TGI: > 100 µM
[47]
  GI50: 4.63 µM
  TGI: > 100 µM
